Laboratory results: ChEMBL document CHEMBL1137253, “Novel C-3 N-urea, amide, and carbamate dihydroindazolo[5,4-a]pyrrolo[3,4-c]carbazole analogs as potent TIE-2 and VEGF-R2 dual inhibitors” (Bioorg Med Chem Lett, 2006)

What was measured:
Angiopoietin-1 receptor = Angiopoietin-1 receptor (Homo sapiens, UniProt Q02763)
[1] = Half life in rat at 1 mg/kg, iv; type: ADME, organism-based; parameters: dose 1 mg/kg, route intravenous; conditions: in vivo
[2] = AUC (0-t) in rat at 1 mg/kg, iv; type: ADME, organism-based; parameters: dose 1 mg/kg, route intravenous; conditions: plasma
[3] = AUC (0-infinity) in rat at 1 mg/kg, iv; type: ADME, organism-based; parameters: time infinity, dose 1 mg/kg, route intravenous; conditions: plasma
[4] = Volume of distribution in rat at 1 mg/kg, iv; type: ADME, organism-based; parameters: dose 1 mg/kg, route intravenous; conditions: in vivo, read-out: Vdss
[5] = Clearance in rat at 1 mg/kg, iv; type: ADME, organism-based; parameters: dose 1 mg/kg, route intravenous; conditions: in vivo
[6] = Tmax in rat at 5 mg/kg, po; type: ADME, organism-based; parameters: dose 5 mg/kg, route oral; conditions: in vivo
[7] = AUC (0-t) in rat at 5 mg/kg, po; type: ADME, organism-based; parameters: dose 5 mg/kg, route oral; conditions: plasma
[8] = AUC (0-infinity) in rat at 5 mg/kg, po; type: ADME, organism-based; parameters: time infinity, dose 5 mg/kg, route oral; conditions: plasma
[9] = Cmax in rat at 5 mg/kg, po; type: ADME, organism-based; parameters: dose 5 mg/kg, route oral; conditions: in vivo
Mus musculus = organism: Mus musculus; experiment: Antitumor activity against murine SVR cells in nude mice; type: functional
Rattus norvegicus = experiment: Toxicity assessed by gastrointestinal hemorrhage in rat at 10 mg/kg; type: organism-based; parameters: dose 10 mg/kg; conditions: in vivo

Sequence of Angiopoietin-1 receptor (Q02763 whole entry): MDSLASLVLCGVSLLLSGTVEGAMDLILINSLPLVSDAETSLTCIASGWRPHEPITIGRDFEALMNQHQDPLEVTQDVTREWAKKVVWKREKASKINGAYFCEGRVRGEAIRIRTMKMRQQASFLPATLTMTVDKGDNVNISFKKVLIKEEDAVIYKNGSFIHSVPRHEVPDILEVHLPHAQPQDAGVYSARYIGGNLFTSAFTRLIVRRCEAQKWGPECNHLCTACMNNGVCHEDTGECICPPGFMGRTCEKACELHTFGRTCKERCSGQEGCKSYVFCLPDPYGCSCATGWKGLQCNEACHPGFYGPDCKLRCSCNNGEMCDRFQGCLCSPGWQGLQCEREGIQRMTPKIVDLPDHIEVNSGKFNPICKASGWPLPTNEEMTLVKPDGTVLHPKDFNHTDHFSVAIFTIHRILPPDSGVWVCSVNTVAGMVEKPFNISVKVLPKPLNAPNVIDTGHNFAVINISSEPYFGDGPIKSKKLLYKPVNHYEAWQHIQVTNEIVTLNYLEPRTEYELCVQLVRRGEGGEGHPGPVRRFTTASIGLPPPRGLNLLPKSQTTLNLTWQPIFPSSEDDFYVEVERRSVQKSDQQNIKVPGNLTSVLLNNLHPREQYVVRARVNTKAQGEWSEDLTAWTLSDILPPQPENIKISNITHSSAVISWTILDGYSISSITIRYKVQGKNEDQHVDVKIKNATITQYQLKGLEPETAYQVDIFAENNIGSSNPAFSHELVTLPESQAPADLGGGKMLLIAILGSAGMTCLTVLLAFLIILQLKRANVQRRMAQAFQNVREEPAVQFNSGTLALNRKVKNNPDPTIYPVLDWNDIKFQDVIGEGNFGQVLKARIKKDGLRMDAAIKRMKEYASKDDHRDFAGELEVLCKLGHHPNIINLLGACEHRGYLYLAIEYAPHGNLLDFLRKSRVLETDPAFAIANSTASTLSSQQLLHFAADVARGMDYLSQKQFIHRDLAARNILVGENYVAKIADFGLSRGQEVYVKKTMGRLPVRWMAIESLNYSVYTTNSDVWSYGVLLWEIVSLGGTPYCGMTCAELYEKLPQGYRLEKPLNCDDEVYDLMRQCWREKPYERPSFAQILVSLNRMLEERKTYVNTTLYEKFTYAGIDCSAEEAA

IC50 (Angiopoietin-1 receptor) [nM] | SMILES | also measured
3 | CCCn1c2ccc(NC(=O)Nc3ccccc3Cl)cc2c2c3c(c4c(c21)CCc1nn(C)cc1-4)C(=O)NC3 | 
4 | CCn1c2ccc(NC(=O)Nc3ccc(OC)cc3)cc2c2c3c(c4c(c21)CCc1nn(C)cc1-4)C(=O)NC3 | 
2 | CCCn1c2ccc(NC(=O)Nc3ccccc3F)cc2c2c3c(c4c(c21)CCc1nn(C)cc1-4)C(=O)NC3 | 
5 | CCCn1c2ccc(NC(=O)Oc3ccc(OC)cc3)cc2c2c3c(c4c(c21)CCc1nn(C)cc1-4)C(=O)NC3 | 
4 | CCCn1c2ccc(NC(=O)Nc3ccccc3Br)cc2c2c3c(c4c(c21)CCc1nn(C)cc1-4)C(=O)NC3 | 
6 | CCCn1c2ccc(NC(=O)Nc3ccc(N(C)C)cc3)cc2c2c3c(c4c(c21)CCc1nn(C)cc1-4)C(=O)NC3 | 
18 | CCCn1c2ccc(NC(=O)OCC)cc2c2c3c(c4c(c21)CCc1nn(C)cc1-4)C(=O)NC3 | 
7 | CCCCn1c2ccc(NC(=O)Nc3ccc(OC)cc3)cc2c2c3c(c4c(c21)CCc1nn(C)cc1-4)C(=O)NC3 | 
2 | CCCn1c2ccc(NC(=O)N(C)c3ccccc3)cc2c2c3c(c4c(c21)CCc1nn(C)cc1-4)C(=O)NC3 | 
20 | CC(C)Cn1c2ccc(NC(=O)c3ccco3)cc2c2c3c(c4c(c21)CCc1nn(C)cc1-4)C(=O)NC3 | 
48 | CC(C)Cn1c2ccc(N)cc2c2c3c(c4c(c21)CCc1nn(C)cc1-4)C(=O)NC3 | 
2 | CCCn1c2ccc(NC(=O)Nc3ccc(F)cc3)cc2c2c3c(c4c(c21)CCc1nn(C)cc1-4)C(=O)NC3 | 
1 | CCCn1c2ccc(NC(=O)Nc3cc(C)ccc3F)cc2c2c3c(c4c(c21)CCc1nn(C)cc1-4)C(=O)NC3 | 
3 | CCCn1c2ccc(NC(=O)Nc3ccc(C)cc3)cc2c2c3c(c4c(c21)CC(C=N)=CC4)C(=O)NC3 | 
12 | CCCn1c2ccc(NC(=O)c3cccs3)cc2c2c3c(c4c(c21)CCc1nn(C)cc1-4)C(=O)NC3 | 
4 | COc1cccc(NC(=O)Nc2ccc3c(c2)c2c4c(c5c(c2n3CC(C)C)CCc2nn(C)cc2-5)C(=O)NC4)c1 | 

IC50 (Angiopoietin-1 receptor) [nM] | SMILES | also measured
19 | CCCn1c2ccc(NC(=O)Nc3cccs3)cc2c2c3c(c4c(c21)CCc1nn(C)cc1-4)C(=O)NC3 | 
36 | CCCn1c2ccc(N)cc2c2c3c(c4c(c21)CCc1nn(C)cc1-4)C(=O)NC3 | 
230 | CCCCn1c2ccc(N)cc2c2c3c(c4c(c21)CCc1nn(C)cc1-4)C(=O)NC3 | 
2 | CCCn1c2ccc(NC(=O)Nc3cccc(F)c3)cc2c2c3c(c4c(c21)CCc1nn(C)cc1-4)C(=O)NC3 | 
4 | CCCn1c2ccc(NC(=O)Nc3cc(C(F)(F)F)ccc3F)cc2c2c3c(c4c(c21)CCc1nn(C)cc1-4)C(=O)NC3 | 
2 | CCCn1c2ccc(NC(=O)Nc3ccc(OC)cc3)cc2c2c3c(c4c(c21)CCc1nn(C)cc1-4)C(=O)NC3 | 
6 | CCCn1c2ccc(NC(=O)Nc3ccc(Cl)cc3)cc2c2c3c(c4c(c21)CCc1nn(C)cc1-4)C(=O)NC3 | 
8 | COc1ccccc1NC(=O)Nc1ccc2c(c1)c1c3c(c4c(c1n2CC(C)C)CCc1nn(C)cc1-4)C(=O)NC3 | 
11 | CCCn1c2ccc(NC(=O)OC(C)C)cc2c2c3c(c4c(c21)CCc1nn(C)cc1-4)C(=O)NC3 | half-life [1]: 2.84 h; AUC(0-t) [2]: 1420 ng·h/mL; AUC(0-inf) [3]: 1710 ng·h/mL; Vd [4]: 2.34 L/kg; clearance [5]: 10.5 mL/min/kg; Tmax [6]: 4 h; AUC(0-t) [7]: 2420 ng·h/mL; AUC(0-inf) [8]: 3770 ng·h/mL; Cmax [9]: 552 ng/mL; Activity (Mus musculus): 62%; Activity (Rattus norvegicus): Toxic
11 | CCCn1c2ccc(NC(=O)Oc3ccc(F)cc3)cc2c2c3c(c4c(c21)CCc1nn(C)cc1-4)C(=O)NC3 | 
3 | COc1ccc(NC(=O)Nc2ccc3c(c2)c2c4c(c5c(c2n3CC(C)C)CCc2nn(C)cc2-5)C(=O)NC4)cc1 | 
29 | CCCn1c2ccc(NC(=O)c3ccco3)cc2c2c3c(c4c(c21)CCc1nn(C)cc1-4)C(=O)NC3 | 
5 | CCCn1c2ccc(NC(=O)Nc3ccccc3)cc2c2c3c(c4c(c21)CCc1nn(C)cc1-4)C(=O)NC3 | 
7 | CCCOC(=O)Nc1ccc2c(c1)c1c3c(c4c(c1n2CCC)CCc1nn(C)cc1-4)C(=O)NC3 | 
3 | CCCn1c2ccc(NC(=O)Nc3ccc(SC)cc3)cc2c2c3c(c4c(c21)CCc1nn(C)cc1-4)C(=O)NC3 | 
10 | CC(C)Cn1c2ccc(NC(=O)c3cccs3)cc2c2c3c(c4c(c21)CCc1nn(C)cc1-4)C(=O)NC3 | 
